The test system of assay [1] is RAW264.7 cells. Description: RT-PCR of inflammatory genes in RAW264.7 cells (Table 2). In kind it is cell-based, mouse. On the procedure: Real-time PCR (RT-PCR): Brains were dissected and tissues stored frozen at −70° C. until use. Hippocampal RNA was extracted using the RNeasy Tissue Mini Kit (Qiagen, Germany). Total RNA was reverse-transcribed (200 ng) using Impromp-II reverse transcriptase (Promega, Madison, Wis.) as instructed. RT-PCR was performed using Power SYBR®Green PCR Master Mix (Applied Biosystems, UK) in a 7900 HT Sequence Detection System (Applied Biosystems, Foster City, Calif.). Quantification was assessed at the logarithmic phase of the PCR reaction. The PCR annealing temperature was 60° C. for all primer pairs. GAPDH was used as a house-keeping gene.
Shown are fold differences in RT-PCR products of RAW264.7 cells incubated with the noted doses of mEN101 or ODN1826. Note that ODN1826 affects IL1α, -1β, -6, -10, -12 and ICAM-1 gene expression at concentrations as low as 10 nM, whereas considerably higher doses of mEN101 are needed to attain similar effects. Nevertheless, mEN101 affects inflammatory gene expression even at 10 nM. 1 μg/ml LPS was used as positive control. (n=3, p<0.05 Mann-Whitney U-test compared to untreated controls, for all the data shown).

Assay [2] deals with RAW264.7 cells. Description: HSP90β mRNA RT-PCR in RAW264.7 cells. The format is cell-based, mouse. The settings on record: 24 hour incubation. Here is the method:
Cell cultures: The mouse macrophage cell line RAW 264.7 (ATCC, MD) was cultured in Dulbecco's modified Eagle's medium (DMEM) (Biological Industries, Israel) supplemented with 10% heat-inactivated fetal bovine serum (Biological Industries, Israel), 100 μg/ml streptomycin (Sigma), 100 U/ml penicillin (Sigma) and 2 mM 1-glutamine (Biological Industries, Israel) at 37° C. in a humidified atmosphere with 5% CO2.
Real-time PCR (RT-PCR): RAW264.7 cells and spleen were used for RT-PCR. 1×10^6 RAW264.7 cells were grown in 2 ml medium in 6 wells plates until 80% confluence was obtained. Total RNA was extracted using the RNeasy kit (Qiagen, CA, USA). Spleen and brain tissues' RNA was extracted using the RNeasy Tissue Mini Kit (Qiagen, Germany). In all cases, total RNA was reverse-transcribed (200 ng) using Impromp-II reverse transcriptase (Promega, WI, USA) according to manufacturer's instructions. RT-PCR was performed using Power SYBR®Green PCR Master Mix (Applied Biosystems, UK) in a 7900 HT Sequence Detection System (Applied Biosystems, CA). Quantification was assessed at the logarithmic phase of the PCR reaction. The PCR annealing temperature was 60° C. for all primer pairs.

Take “5′-TCCATGACGTTCCTGACGTT-3′ [ODN1826, reference compound]”: in the assay with RAW264.7 cells [1] (10 nM), the “ICAM-1 RT-PCR product” value was −3.57 log2 from NT, the “IL1a RT-PCR product” value amounted to 4.18 log2 from NT, the “IL1b RT-PCR product” value is 4.40 log2 from NT and the “IL6 RT-PCR product” value was 3.57 log2 from NT. Besides, in the assay on RAW264.7 cells [1] (10 nM), the “IL10 RT-PCR product” value is 3.74 log2 from NT and the “IL12 RT-PCR product” value is reported as 3.57 log2 from NT. Further, in the assay with RAW264.7 cells [1] (100 nM), the “ICAM-1 RT-PCR product” value was −3.14 log2 from NT, the “IL1a RT-PCR product” value is 5.33 log2 from NT, the “IL1b RT-PCR product” value is on record as 5.63 log2 from NT and the “IL6 RT-PCR product” value came out at 3.71 log2 from NT. Also, in the assay on RAW264.7 cells [1] (100 nM), the “IL10 RT-PCR product” value was determined as 4.28 log2 from NT and the “IL12 RT-PCR product” value was 4.28 log2 from NT. Moreover, the “HSP90β mRNA levels” value with RAW264.7 cells [2] is “significantly increased HSP90β mRNA levels”.

Values taken from patent US20110136897A1, “TOLL-LIKE RECEPTOR 9 AGONISTS FOR THE TREATMENT OF ANXIETY-RELATED DISORDERS AND INFLAMMATORY DISORDERS” (YISSUM RESEARCH DEVELOPMENT COMPANY OF THE HEBREW …, priority 2008, published 2011).
